From patent US6534501B2, “Allosteric inhibitors of pyruvate kinase” (Allos Therapeutics, Inc., priority 1998, dated 2003)

How the values were obtained:
[1] = molecular target: T1, Human Erythrocyte Pyruvate Kinase (R-PK) (Homo sapiens, UniProt P30613); test: PK activity assay coupled with lactate dehydrogenase (NADH oxidation at 340 nm); format: biochemical; conditions: for IC50: stock solutions in DMSO, dose-response of FIG. 6, read-out: IC50 (R-PK inhibition)
T1 construct: The four units of human whole blood obtained from the Blood Bank; from tissue
Procedure: PK activity was measured using the assay conditions that are recommended by the International Committee for Standardization in Hematology (ICSH). […] The positive cooperativity of substrate binding is clearly seen from the upward curvature in the Lineweaver plot. The experimental data were fit to the Hill equation. The derived parameters were K0.5S=2.37 mM and Hill coefficient (nH) of 1.41.
Phenlyalanine has long been known as an allosteric inhibitor of PK. […] It can be seen from FIG. 2 that an increase in the concentration of phenlyalanine results in a decreased affinity and a more pronounced sigmoidity of the substrate binding. When phenylalanine increases from 0 to 30 mM, the K0.5S increases by 2.5 folds and nH increases by 1.4 folds, respectively. To avoid fluctuations in measurement of PK parameters, all experiments reported herein and assays were performed using the same batch of preparation and under identical conditions.
PK activity is measured by coupling it with lactate dehydrogenase, which transforms pyruvate into lactate and oxidizes NADH into NAD. A reduction of oxidation of NADH is followed at 340 nm using the 96 well plate in a Spectramax spectrophotometer (Molecular Devices, Ca.).
The assay buffer (100 mM Tris pH 7.5) was prepared by dissolving TRIS 100 mM, KCl 100 mM, EDTA 0.5 mM, and 10 MM MgCl2 in deionized water. The pH of the solution was adjusted to 7.5 by adding a small amount of TRIS. The stock solution of NADH (20 mM), ADP 100 mM (neutralized), LDH 500 IU/ml and PEP 100 mM were prepared in the assay buffer. The following quantities of reagents were added to make 1 ml of assay solution.
The contents were mixed and incubated for five minutes at 37° C. Then, 50 μl of PEP was added and the absorbance changes were followed at 340 nm. The initial reaction velocity in AU/min was then calculated.
The control samples in each experiment were incubated under the same conditions as without any compound. In all cases, the experiments were begun after saturation with PEP. The percent inhibition of PK activity was calculated by subtracting the activity of the control sample from the activity in the presence of compound.
Compounds 4(1) through 4(12) thus obtained were tested.
The percent activity values presented in FIG. 5 represent an average of six independent experiments. All examined compounds were prepared as stock solutions in DMSO.
As a control for FIG. 5, the assay was performed with DMSO, but no compound.
Otherwise, the dose-response for R-PK in FIG. 5 in this Example 5 was performed as described in the above Examples.

[2] = compound concentration 0.5 mM, pH 7.5, 37° C., after saturation with PEP
[3] = compound concentration 2 mM, pH 7.5, 37° C., after saturation with PEP
[4] = phenylalanine increases from 0 to 30 mM

T1 sequence (P30613 whole entry): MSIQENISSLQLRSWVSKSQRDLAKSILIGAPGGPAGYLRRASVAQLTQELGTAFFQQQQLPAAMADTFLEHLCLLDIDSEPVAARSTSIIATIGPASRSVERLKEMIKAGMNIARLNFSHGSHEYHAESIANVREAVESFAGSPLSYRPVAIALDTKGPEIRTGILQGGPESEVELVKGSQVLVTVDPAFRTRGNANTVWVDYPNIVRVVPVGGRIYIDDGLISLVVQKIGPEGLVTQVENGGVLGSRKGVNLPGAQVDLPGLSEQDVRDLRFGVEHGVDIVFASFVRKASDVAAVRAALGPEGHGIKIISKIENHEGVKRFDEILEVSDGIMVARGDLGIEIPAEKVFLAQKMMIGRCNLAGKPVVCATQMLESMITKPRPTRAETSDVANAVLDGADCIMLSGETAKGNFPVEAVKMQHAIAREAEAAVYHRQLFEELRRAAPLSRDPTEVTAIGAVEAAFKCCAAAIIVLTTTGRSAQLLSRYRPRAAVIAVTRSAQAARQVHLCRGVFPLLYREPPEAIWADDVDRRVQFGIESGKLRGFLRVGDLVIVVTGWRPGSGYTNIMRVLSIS

2-(9-Ethyl-9H-carbazol-3-ylvinylideneamino)-1-(4-nitrobenzoate) [(5)]
IC50 [1]: 17.4 µM

2-phenylethyloxy-5-formylbenzoic acid [TB 32]
% PK Inhibition [1, 2]: 48% | % PK Inhibition [1, 3]: 77% | % PK Inhibition ([1]; compound concentration 3 mM, pH 7.5, 37° C., after saturation with PEP): 80%

3-(2-{1-(3-Chlorophenyl)-1(3-hydroxyphenyl)-ureido]-ethyl}-4-oxo-4H-quinazolin-3-yl)-propionic acid [(4)]
IC50 [1]: 16.1 µM

CCCCN(Cc1c2ccccc2c(Cl)c2ccccc12)C(=O)NCC(=O)OCC [(1), [3-Butyl-3-(10-chloro-anthracen-9-ylmethyl)-ureido]-acetic acid ethyl ester]
IC50 [1]: > 50 µM

Cc1cccc2nc3cccc(C(=O)Nc4ccccc4C(=O)O)c3nc12 [(2), 2-[(9-Methyl-phenazine-1-carbonyl)-amino]-benzoic acid]
IC50 [1]: 8.9 µM

O=c1oc(Nc2ccc(Cl)cc2)nc2ccccc12 [(3), 2-(4-Chloro-phenylamino)-benzo[d][1,3]oxazin-4-one]
IC50 [1]: 20.9 µM

CCc1nc2ccccc2c(=O)n1CCc1cn(COC(=O)CCl)c2ccccc12 [(6), Chloroacetic acid 3-[2-(2-ethyl-4-oxo-4H-quinazolin-3-yl)ethyl]-indol-lylmethylester]
IC50 [1]: 12.1 µM

COC(=O)c1sc(-c2ccc(Cl)cc2)cc1NCc1ccccc1 [(7), 3-Benzylamino-5-(4-chlorophenyl)-4H-1λ^4-thiophene-2-carboxylic acid methyl ester]
IC50 [1]: 16.9 µM

COC(=O)c1cc(Oc2ccc(C(=O)OC)cc2NC(=O)c2cc(Cl)cc(Cl)c2)cc(C(=O)OC)c1 [(8), 5-[2-(3,5-Dichlorobenzoylamino)-4-methoxycarbonyl-phenoxy]-isophtahlic acid dimethyl ester]
IC50 [1]: 9 µM

COC(=O)c1cc(Oc2ccc(C(=O)OC)cc2NC(=O)NC2CCCCC2)cc(C(=O)OC)c1 [(9), 5-[2-(3-Cyclohexyl-ureido)-4-methoxycarbonyl-phenoxy]-isophtahlic acid dimethyl ester]
IC50 [1]: 9.4 µM

N[C@@H](Cc1ccccc1)C(=O)O [L-Phenylalanine, reference compound]
inhibition at 10000 µM ([1]; compound concentration 10 mM, pH 7.5, 37° C., after saturation with PEP): 15% | inhibition at 30000 µM ([1]; compound concentration 30 mM, pH 7.5, 37° C., after saturation with PEP): 72% | increase of Hill coefficient nH [1, 4]: 1.4 folds | increase of K0.5S (PEP) [1, 4]: 2.5 folds

COc1ccc(OCCCCCC(=O)O)c(C=O)c1 [TB 88, 6-(2-formyl-4-methoxyphenoxy)hexanoic acid]
inhibition at 500 µM [1, 2]: 16% | inhibition at 2500 µM ([1]; compound concentration 2.5 mM, pH 7.5, 37° C., after saturation with PEP): 28%

Cc1ccc(OCCCCCC(=O)O)c(C=O)c1 [TB 154, 6-(2-formyl-4-methylphenoxy)hexanoic acid]
inhibition at 500 µM [1, 2]: 19% | inhibition at 2000 µM [1, 3]: 28% | melting point: 97 to 99 °C

CCC(CCCCC(=O)O)Oc1ccc([N+](=O)[O-])cc1C=O (stereo not shown) [TDD 57, 6-(2-formyl-4-nitrophenoxy)octanoic Acid]
inhibition at 500 µM [1, 2]: 36%
